Reference: patent US10947234B2, “PRMT5 inhibitors” (Merck Sharp & Dohme Corp., priority 2017, dated 2021)
Like-named read-outs stand apart in the source and are kept apart here.

Experiments:
[1] = target: Full-length (FL)-PRMT5-MEP50 enzyme complex (Homo sapiens (Human), UniProt O14744); assay: PRMT5-MEP50 Enzyme Methylation Assay; type: biochemical; details: biotinylated H4R3(Me1) peptide, 15 μM SAM, top compound concentration 100000 nM
Experimental: PRMT5-MEP50 Enzyme Methylation Assay
PRMT5/MEP50 biochemical assay is a direct measurement of the methylation activity of the enzyme complex on a short peptide substrate derived from the N-terminus of H4 histone. Methylation experiment is performed with recombinant protein. The assessment of inhibitory effect (IC50) of small molecules is measured by the effectiveness of the compounds to inhibit this reaction.
To each well of a white ProxiPlus 384 well-plate, 100 nL of compound (1% DMSO in final assay volume of 10 μL) was dispensed, followed by the addition of 8 μL of 1× assay buffer (50 mM Bicine pH 8.0, 1 mM DTT, 0.004% Tween20, 0.01% BSA) containing 0.5 nM of Full-length (FL)-PRMT5-MEP50 enzyme complex (recombinant proteins from baculovirus-transfected Sf21 cells: FL-PRMT5; MW=[…] and FL-MEP50; MW=38614). Plates were sealed and placed in a 37° C. humidified chamber for 30 minutes pre-incubation with compounds. Subsequently, each reaction was initiated by the addition of 2 μL 1× assay buffer containing 75 nM biotinylated H4R3(Me1) peptide, and 15 μM S-(5′-Adenosyl)-L-Methionine Chloride (SAM). The final reaction in each well of 10 μL consists of 0.5 nM PRMT5-MEP50, 75 nM biotinylated-peptide, and 15 μM. Methylation reactions were allowed to proceed for 150 minutes in a sealed plate at 37° C. Reactions were immediately quenched by the addition of 1 μL of 10% formic acid. Plates were then frozen and shipped to SAMDI™ Tech Inc. to determine the percent conversion from […]. IC50 values were determined by 7 parameters biphasic fit model plotting the percent product conversion vs. (Log10) compound concentrations.

[2] = target: PRMT5 (Homo sapiens (Human), UniProt O14744); assay: PRMT5 Cell Target Engagement (TE) Assay; type: cell-based; details: MCF-7 cells, 3 days treatment, nuclear SDMA by high content imaging; top compound concentration 10000 nM
Excerpt: PRMT5 Cell Target Engagement (TE) Assay
The PRMT5 TE assay is a biomarker assay for identifying compounds that inhibit symmetric dimethylation of arginine (SDMA) of PRMT5 substrates. This assay detects symmetrically dimethylated nuclear proteins using high content imaging technology. Detection of the expression of symmetrically dimethylated nucleo proteins is through a mixture of primary rabbit monoclonal antibodies to SDMA (CST 13222), which in turn recognized by an Alexafluor 488 dye-conjugated anti-rabbit IgG secondary antibody. The IN Cell Analyzer 2200 measures nuclear Alexafluor 488 fluorescent dye intensity that is directly related to the level of expression of symmetrically dimethylated nuclear proteins at the single cell level. Nuclear AF488 dye intensities are compared to the mean value for DMSO treated cells […] to report percent of inhibition for each compound-treated well.
Each well of a BD falcon collagen coated black/clear bottom 384-well plate was seeded with 4000 MCF-7 cells and allowed to attach for 5 hours. Media from cell plate was removed at 0.5 mm above the bottom of the plate and replaced with 30 μL of fresh media containing 1.2× compounds in 0.1% DMSO. Cells were treated for 3 days in 37° C. CO2 incubator. On day 3, cells were fixed with Cytofix, permeablized with 0.4% Triton-X-100/Cytofix, and washed with D-PBS without Ca/Mg. Cells were blocked with Licor Odessey blocking reagent for one hour at room temperature, followed by incubation with anti-SDMA (1:1000) antibody at 4° C. overnight. 1° antibody was removed, followed by three washings with DPBS without Ca/Mg and 0.05% Tween20. Hoechst (5 μg/ml), Cell Mask deep stain (1:2000) and Alexa488-conjugated goat anti-rabbit IgG (2 μg/mL) was added for 1 hour at room temperature. A final washing step (three washes) was performed before sealing plate for imaging on In Cell Analyzer 2200. Images from analyzer were uploaded to Columbus (at WP) for image analysis. IC50 values were determined by 4 parameters robust fit of percent fluorescence units vs. (Log10) compound concentrations.

[3] = first IC50 of 7 parameters biphasic fit, read-out: Enzyme Methylation Assay IC50_1
[4] = second IC50 of 7 parameters biphasic fit, read-out: Enzyme Methylation Assay IC50_2

Chain of Full-length (FL)-PRMT5-MEP50 enzyme complex (O14744 whole entry): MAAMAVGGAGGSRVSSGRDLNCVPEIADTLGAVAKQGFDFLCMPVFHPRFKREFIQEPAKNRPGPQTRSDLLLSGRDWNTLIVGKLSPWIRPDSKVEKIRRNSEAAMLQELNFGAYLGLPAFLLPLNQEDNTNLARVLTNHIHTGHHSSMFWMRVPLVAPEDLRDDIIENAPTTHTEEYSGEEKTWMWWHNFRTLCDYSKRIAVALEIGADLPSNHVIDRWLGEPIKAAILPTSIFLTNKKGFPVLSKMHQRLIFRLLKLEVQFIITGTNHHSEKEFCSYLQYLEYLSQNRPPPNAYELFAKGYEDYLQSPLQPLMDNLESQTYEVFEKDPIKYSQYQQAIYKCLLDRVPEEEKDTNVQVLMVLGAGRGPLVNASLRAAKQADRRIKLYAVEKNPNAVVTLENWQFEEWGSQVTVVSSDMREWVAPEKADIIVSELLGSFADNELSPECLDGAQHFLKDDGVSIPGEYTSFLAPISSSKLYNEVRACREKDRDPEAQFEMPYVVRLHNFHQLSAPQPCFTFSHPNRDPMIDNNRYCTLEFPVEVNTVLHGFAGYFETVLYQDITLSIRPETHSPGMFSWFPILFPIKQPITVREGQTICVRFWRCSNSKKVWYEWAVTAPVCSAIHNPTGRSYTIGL
Chain of Full-length (FL)-PRMT5-MEP50 enzyme complex (Q9BQA1 whole entry partner): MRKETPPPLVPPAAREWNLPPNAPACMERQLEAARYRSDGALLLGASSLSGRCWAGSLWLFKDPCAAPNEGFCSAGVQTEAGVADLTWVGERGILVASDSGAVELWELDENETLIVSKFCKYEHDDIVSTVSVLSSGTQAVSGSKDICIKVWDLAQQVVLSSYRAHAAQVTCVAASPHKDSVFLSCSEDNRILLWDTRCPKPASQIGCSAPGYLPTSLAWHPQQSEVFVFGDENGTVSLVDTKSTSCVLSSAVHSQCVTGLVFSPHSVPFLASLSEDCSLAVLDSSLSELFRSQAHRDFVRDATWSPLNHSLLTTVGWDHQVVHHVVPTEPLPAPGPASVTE
Chain of PRMT5 (O14744 whole entry): as the sequence (O14744 whole entry) above
Chain of PRMT5 (Q9BQA1 whole entry partner): as the sequence (Q9BQA1 whole entry partner) above

Row | IC50 [1, 3] | IC50 [1, 4] | EC50 [2] | Compound
1 | 3.83 µM | ≥ 100 µM | ≥ 10 µM | CC[C@H]1CN(C[C@@H](O)[C@@H]2Cc3ccccc3CN2)C(=O)c2cc(Cl)ncc21 (single isomer, unassigned) [Example 2]
2 | 42.9 µM | ≥ 100 µM | ≥ 10 µM | CC[C@H]1CN(C[C@@H](O)[C@@H]2Cc3ccccc3CN2)C(=O)c2cc(Cl)ncc21 (single isomer, unassigned) [Example 4]
3 | 28.3 µM | ≥ 100 µM | ≥ 10 µM | CC[C@H]1CN(C[C@@H](O)[C@@H]2Cc3ccccc3CN2)C(=O)c2cc(Cl)ncc21 (single isomer, unassigned) [Example 3]
4 | 5.19 µM | ≥ 100 µM | ≥ 10 µM | CC[C@H]1CN(C[C@@H](O)[C@@H]2Cc3ccccc3CN2)C(=O)c2cc(Cl)ncc21 (single isomer, unassigned) [Example 1]

Continued, compound first:

Row | Compound | IC50 [1, 3] | IC50 [1, 4] | EC50 [2]
5 | CC[C@H]1CN(C[C@@H](O)[C@@H]2Cc3ccccc3CN2)C(=O)c2cc(NC3CCN(C(C)=O)CC3)ncc21 (single isomer, unassigned) [Example 7] | 0.00715 µM | 4.99 µM | 0.682 µM
6 | CC[C@H]1CN(C[C@@H](O)[C@@H]2Cc3ccccc3CN2)C(=O)c2cc(NC3CCN(C(C)=O)CC3)ncc21 (single isomer, unassigned) [Example 10] | 0.272 µM | 64.5 µM | ≥ 10 µM
7 | CC(=O)N1CCC(Nc2cc3c(cn2)C(C)(C)CN(C[C@@H](O)[C@@H]2Cc4ccccc4CN2)C3=O)CC1 (single isomer, unassigned) [Example 11] | 0.0569 µM | 9.23 µM | 3.89 µM
8 | CC(=O)N1CCC(Nc2cc3c(cn2)C(C)(C)CN(C[C@@H](O)[C@@H]2Cc4ccccc4CN2)C3=O)CC1 (single isomer, unassigned) [Example 12] | 0.00153 µM | 0.631 µM | 0.102 µM
9 | CC[C@H]1CN(C[C@@H](O)[C@@H]2Cc3ccccc3CN2)C(=O)c2cc(NC3CCN(C(C)=O)CC3)ncc21 (single isomer, unassigned) [Example 9] | 0.00108 µM | 1.18 µM | 0.103 µM
10 | CC[C@H]1CN(C[C@@H](O)[C@@H]2Cc3ccccc3CN2)C(=O)c2cc(NC3CCN(C(C)=O)CC3)ncc21 (single isomer, unassigned) [Example 8] | 0.0968 µM | 29.1 µM | 3.24 µM
